{
  "source": "patent US20070037887A1",
  "about": "“Blockade of mtor to prevent a hormonal adaptive response” (University of Virginia Patent Foundation, priority 2003, published 2007)",
  "key": {"mTOR [1]": {"biological_target": "T1, mTOR (Rattus norvegicus, UniProt P42346)", "T1 construct": "expressed in transfected cells; host or cells: 293T", "assay": "Immune complex assay of mTOR activity, compound added to extracts or immune complexes", "assay_type": "biochemical", "conditions": "for PHAS-I kinase activity of AU1-mTOR: extracts incubated with increasing concentrations", "protocol": "293T cells were transfected with expression vectors for AU1-epitope tagged mTOR, HA-tagged raptor, and HA-tagged mLST8. After 24 h, the overexpressed mTOR was immunoprecipitated with AU1 antibodies, and immune complexes were incubated with increasing concentrations of FTS in a reaction mixture containing 2 mM [γ^32P] ATP (250 μCi/ml), 20 mM MnCl2, and 0.1 mg/ml purified recombinant histidine-tagged PHAS-1. After fifteen minutes the reaction was stopped by adding SDS sample buffer, and samples were subjected to SDS-PAGE. The amount of ^32P incorporated into PHAS-I was determined and expressed as a percentage of that incorporated in the absence of FTS. Mean values±the half the range of two experiments are presented.\n293T cells were transfected with pcDNA3 alone (Vec.) or with a combination of pcDNA3AU1-mTOR, pcDNA33HA-Raptor, and pcDNA33HA-mLST8. Extracts of the cells were incubated with increasing concentrations of FTS before AU1-mTOR was immunoprecipated. Samples of the immune complexes were incubated with [γ-^32P]ATP and recombinant [His^6]PHAS-I, then subjected to SDS-PAGE and transferred to an immobilon membrane. After obtaining a phosphorimage of the membrane to detect ^32P-PHAS-I, the membrane was immunoblotted with PThr^36/45 antibodies. Other samples of the immune complexes were subjected to SDS-PAGE and immunoblots were prepared with antibodies to the HA epitope or to mTOR (see FIG. 13A). Extracts of nontransfected 293T cells were incubated with increasing concentrations of FTS before mTOR was immunoprecipated with mTAb1. A control immunoprecipitation was conducted using nonimmune IgG (NI). Immune complexes were subjected to SDS-PAGE and immunoblots were prepared with antibodies to mLST8, mTOR, and raptor.\nSamples of extracts from 293T cells overexpressing AU1-mTOR, HA-raptor, and HA-mLST8 were incubated for 1 h with increasing concentrations of FTS (●, ▴, ▪) or GTS (∘, Δ, □) before immunoprecipitations were conducted with anti-AU1 antibodies. mTOR kinase activity (●, ∘) was determined by measuring ^32P incorporation into [His^6]PHAS-I in immune complex kinases assays performed with [γ-^32P]ATP (see FIG. 14A). The relative amounts of HA-raptor (▴, Δ) and HA-mLST8 (▪, □) that coimmunoprecipitated with AU1-mTOR were determined after immunoblotting with anti-HA antibodies (see FIG. 14B). The results (mean values+S.E. from 5 experiments) are expressed as percentages of the mTOR activity (FIG. 14A) or coimmunoprecipitating proteins (FIG. 14B) from samples incubated without FTS or GTS, and have been corrected for the amounts of AU1-mTOR immunoprecipitated.\n293T cells were transfected with pcDNA3 alone (Vec.) or with a combination of pcDNA3AU1-mTOR, pcDNA33HARaptor, and pcDNA33HA-mLST8. AU1-mTOR was immunoprecipitated and samples of the washed immune complexes were at incubated […] for 30 min with no inhibitors or with the following: caffeine (1 mM), FTS (50 μM), LY294002 (10 μM), rapamycin (1 μM) plus FKBP12 (10 μM), and 1 μM wortmannin. To prevent destruction of wortmannin, incubations were conducted in the absence of thiol reducing agents. Samples of the immune complexes were incubated for 10 min with 10 mM MnCl2, 1 mM [γ-^32P]ATP, and 50 μg/ml [His^6]PHAS-I to assess mTOR activity. Other samples were rinsed twice, subjected to SDS-PAGE, and immunoblotted with anti-HA and anti-AU1 antibodies to determine the amounts of HA-raptor and HA-mLST8 associated with AU1-mTOR. The relative amounts of ^32P incorporated into PHAS-I were determined by phosphorimaging (see FIG. 15B)."}, "mTOR [2]": {"biological_target": "T1, mTOR", "assay": "Immune complex assay of mTOR activity after incubating 293T cells with compound", "assay_type": "cell-based", "conditions": "for mTOR activity: 293T cells incubated with increasing concentrations", "protocol": "FIGS. 12A & 12B represent data showing the effects of incubating cells with increasing concentrations of FTS and GTS on mTOR activity and mTOR association with raptor and mLST8. AU1-mTOR, HA-raptor, and HAmLST8 were overexpressed in 293T cells. The cells were then incubated for 1 h with increasing concentrations of FTS (●, ▴, ▪) or GTS (∘, Δ, □) before extracts were prepared. Immunoprecipitations were then conducted with anti-AU1 antibodies. mTOR kinase activity (●, ∘) was determined by measuring ^32P incorporation into [His^6]PHAS-I in immune complex kinases assays performed with [γ-^32P]ATP. The relative amounts of HA-raptor (▴, Δ) and HA-mLST8 (▪, □) that coimmunoprecipitated with AU1-mTOR were determined after immunoblotting with anti-HA antibodies. The results (mean values±S.E. from 3 experiments) are expressed as percentages of the mTOR activity (FIG. 12A) or coimmunoprecipitating proteins (FIG. 12B) from samples incubated without FTS or GTS, and have been corrected for the amounts of AU1-mTOR immunoprecipitated.\nFIG. 12A presents results of immune complex kinases assays with AU1-mTOR from extracts of 293T cells that had been incubated with increasing concentrations of FTS.\nImmune complex assay of mTOR activity—AU1-mTOR was immunoprecipitated by using anti-AU1 antibody bound to protein G-agarose beads as described previously (McMahon, et al., (2002) Mol. Cell. Biol. 22, 7428-7438). Endogenous mTOR was immunoprecipitated in the same manner, except that mTAb1 was used instead of anti-AU1 antibody. To measure kinase activity, exhaustively washed immune complexes were suspended in 20 μl of Buffer A (50 mM NaCl, 0.1 mM EGTA, 1 mM dithiothreitol (DTT), […], 10 mM Na-HEPES, and 50 mM β-glycerophosphate, pH 7.4.). The kinase reactions were initiated by adding 20 μl of Buffer A supplemented with 2 mM [γ-^32P]ATP, 20 mM MnCl2 and 40 μg/ml of [His^6]PHAS-I. In experiments in which the effects of wortmannin were investigated, DTT was omitted from the reactions, and [His^6]PHAS-I that had been reduced and alkylated with N-ethylmaleimide was used as substrate. Reactions were terminated after 10 min at 30° by adding SDS sample buffer. Samples were subjected to SDS-PAGE and the relative amounts of ^32P incorporated into [His^6]PHAS-I were determined."}},
  "data": [
    {"smiles": "CC(C)=CCC/C(C)=C/CC/C(C)=C/CSc1ccccc1C(=O)O", "note": "[FTS, farnesylthiosalicylic acid]", "values": [
      {"measurement": "concentration at which the effect on mTOR kinase activity could be seen", "setting": "mTOR [1]", "value": 25, "unit": "µM"},
      {"measurement": "concentration of maximal effect on mTOR kinase activity", "setting": "mTOR [1]", "value": 100, "unit": "µM"},
      {"measurement": "mTOR activity", "setting": "mTOR [1]; FTS 50 μM, comparison with other mTOR inhibitors", "value": "decreased"},
      {"measurement": "PHAS-I kinase activity of AU1-mTOR", "setting": "mTOR [1]", "value": "progressively decreased"},
      {"measurement": "concentrations needed to inhibit mTOR activity in vitro relative to intact cells", "setting": "mTOR [1]; extracts vs intact cells", "value": "Approximately four times lower"},
      {"measurement": "ability of mTOR to phosphorylate a substrate specific to mTOR", "setting": "mTOR [1]; recombinant mTOR immunoprecipitated from transfected cells", "value": "completely blocked"},
      {"measurement": "IC50", "setting": "mTOR [2]; 293T cells incubated 1 h, read-out: half maximal effect on inhibition of AU1-mTOR activity", "value": "20 to 30", "unit": "µM"},
      {"measurement": "mTOR activity", "setting": "mTOR [2]", "value": "stable decrease in mTOR activity"}
    ]},
    {"smiles": "CC(C)=CCC/C(C)=C/CSc1ccccc1C(=O)O", "note": "[GTS, S-geranylthiosalicylic acid, reference compound]", "values": [
      {"measurement": "PHAS-I kinase activity of AU1-mTOR", "setting": "mTOR [1]", "value": "progressive decreases"},
      {"measurement": "concentrations for effects on AU1-mTOR activity and AU1-mTOR/HA-raptor association relative to FTS", "setting": "mTOR [1]; extracts of transfected cells", "value": "approximately ten times higher"},
      {"measurement": "mTOR activity", "setting": "mTOR [2]", "value": "slightly decreased"}
    ]}
  ]
}
